PMC11007962, “First-in-human study of GFH018, a small molecule inhibitor of transforming growth factor-β receptor I inhibitor, in patients with advanced solid tumors” (BMC Cancer, 2024)
Read-outs that look alike come from different tables or passages of the source.

System: patients with advanced solid tumors
[1] = 5 mg BID 14d-on/14d-off (N = 4)
[2] = 10 mg BID 14d-on/14d-off (N = 3)
[3] = 20 mg BID 14d-on/14d-off (N = 4)
[4] = 30 mg BID 14d-on/14d-off (N = 7)

Cc1cccc(-c2nn3c(c2-c2ccc4ncnn4c2/C=C/C(N)=O)CCC3)n1 [GFH018]
At least one TEAE [1]: 4 (100%) n (%) | At least one TRAE [1]: 4 (100%) n (%) | TEAE: ALP increased [1]: 0 n (%) | TEAE: ALT increased [1]: 0 n (%) | TEAE: AST increased [1]: 0 n (%) | TEAE: Abdominal distention [1]: 0 n (%) | TEAE: Abdominal pain [1]: 0 n (%) | TEAE: Anemia [1]: 0 n (%) | TEAE: Asthenia [1]: 0 n (%) | TEAE: Bilirubin conjugated increased [1]: 1 (25.0%) n (%) | TEAE: Blood albumin decreased [1]: 2 (50.0%) n (%) | TEAE: Blood bilirubin increased [1]: 0 n (%) | TEAE: C-reactive protein increased [1]: 2 (50.0%) n (%) | TEAE: Constipation [1]: 0 n (%) | TEAE: Decreased appetite [1]: 1 (25.0%) n (%) | TEAE: GGT increased [1]: 1 (25.0%) n (%) | TEAE: Hypoalbuminemia [1]: 0 n (%) | TEAE: LDH increased [1]: 1 (25.0%) n (%) | TEAE: Lymphocyte count decreased [1]: 4 (100%) n (%) | TEAE: Platelet count decreased [1]: 1 (25.0%) n (%) | TEAE: Proteinuria [1]: 1 (25.0%) n (%) | TEAE: Sinus tachycardia [1]: 2 (50.0%) n (%) | TEAE: Urine protein present [1]: 2 (50.0%) n (%) | TEAE: White blood cell count decreased [1]: 1 (25.0%) n (%) | TEAE: White blood cells urine positive [1]: 0 n (%) | TRAE: ALP increased [1]: 0 n (%) | TRAE: ALT increased [1]: 0 n (%) | TRAE: AST increased [1]: 0 n (%) | TRAE: Anemia [1]: 0 n (%) | TRAE: GGT increased [1]: 0 n (%) | TRAE: LDH increased [1]: 0 n (%) | TRAE: Lymphocyte count decreased [1]: 1 (25.0%) n (%) | TRAE: Protein urine present [1]: 1 (25.0%) n (%) | TRAE: Proteinuria [1]: 0 n (%) | Treatment-emergent Proteinuria (grouped PTs), G1 [1]: 1 (25.0) n (%) | Treatment-emergent Proteinuria (grouped PTs), G2 [1]: 2 (50.0) n (%) | Treatment-emergent Proteinuria (grouped PTs), G3 [1]: 0 n (%) | Treatment-emergent Proteinuria (grouped PTs: proteinuria and urine protein present), any grade [1]: 3 (75.0) n (%) | At least one TEAE [2]: 3 (100%) n (%) | At least one TRAE [2]: 3 (100%) n (%) | TEAE: ALP increased [2]: 1 (33.3%) n (%) | TEAE: ALT increased [2]: 1 (33.3%) n (%) | TEAE: AST increased [2]: 0 n (%) | TEAE: Abdominal distention [2]: 0 n (%) | TEAE: Abdominal pain [2]: 0 n (%) | TEAE: Anemia [2]: 1 (33.3%) n (%) | TEAE: Asthenia [2]: 1 (33.3%) n (%) | TEAE: Bilirubin conjugated increased [2]: 0 n (%) | TEAE: Blood albumin decreased [2]: 1 (33.3%) n (%) | TEAE: Blood bilirubin increased [2]: 0 n (%) | TEAE: C-reactive protein increased [2]: 0 n (%) | TEAE: Constipation [2]: 1 (33.3%) n (%) | TEAE: Decreased appetite [2]: 0 n (%) | TEAE: GGT increased [2]: 2 (66.7%) n (%) | TEAE: Hypoalbuminemia [2]: 0 n (%) | TEAE: LDH increased [2]: 1 (33.3%) n (%) | TEAE: Lymphocyte count decreased [2]: 0 n (%) | TEAE: Platelet count decreased [2]: 0 n (%) | TEAE: Proteinuria [2]: 0 n (%) | TEAE: Sinus tachycardia [2]: 0 n (%) | TEAE: Urine protein present [2]: 2 (66.7%) n (%) | TEAE: White blood cell count decreased [2]: 0 n (%) | TEAE: White blood cells urine positive [2]: 0 n (%) | TRAE: ALP increased [2]: 1 (33.3%) n (%) | TRAE: ALT increased [2]: 1 (33.3%) n (%) | TRAE: AST increased [2]: 0 n (%) | TRAE: Anemia [2]: 1 (33.3%) n (%) | TRAE: GGT increased [2]: 2 (66.7%) n (%) | TRAE: LDH increased [2]: 1 (33.3%) n (%) | TRAE: Lymphocyte count decreased [2]: 0 n (%) | TRAE: Protein urine present [2]: 1 (33.3%) n (%) | TRAE: Proteinuria [2]: 0 n (%) | Treatment-emergent Proteinuria (grouped PTs), G1 [2]: 0 n (%) | Treatment-emergent Proteinuria (grouped PTs), G2 [2]: 2 (66.7) n (%) | Treatment-emergent Proteinuria (grouped PTs), G3 [2]: 0 n (%) | Treatment-emergent Proteinuria (grouped PTs: proteinuria and urine protein present), any grade [2]: 2 (66.7) n (%) | At least one TEAE [3]: 4 (100%) n (%) | At least one TRAE [3]: 4 (100%) n (%) | TEAE: ALP increased [3]: 1 (25.0%) n (%) | TEAE: ALT increased [3]: 1 (25.0%) n (%) | TEAE: AST increased [3]: 0 n (%) | TEAE: Abdominal distention [3]: 1 (25.0%) n (%) | TEAE: Abdominal pain [3]: 0 n (%) | TEAE: Anemia [3]: 1 (25.0%) n (%) | TEAE: Asthenia [3]: 2 (50.0%) n (%) | TEAE: Bilirubin conjugated increased [3]: 1 (25.0%) n (%) | TEAE: Blood albumin decreased [3]: 1 (25.0%) n (%) | TEAE: Blood bilirubin increased [3]: 1 (25.0%) n (%) | TEAE: C-reactive protein increased [3]: 0 n (%) | TEAE: Constipation [3]: 0 n (%) | TEAE: Decreased appetite [3]: 0 n (%) | TEAE: GGT increased [3]: 0 n (%) | TEAE: Hypoalbuminemia [3]: 0 n (%) | TEAE: LDH increased [3]: 0 n (%) | TEAE: Lymphocyte count decreased [3]: 0 n (%) | TEAE: Platelet count decreased [3]: 0 n (%) | TEAE: Proteinuria [3]: 2 (50.0%) n (%) | TEAE: Sinus tachycardia [3]: 0 n (%) | TEAE: Urine protein present [3]: 2 (50.0%) n (%) | TEAE: White blood cell count decreased [3]: 1 (25.0%) n (%) | TEAE: White blood cells urine positive [3]: 1 (25.0%) n (%) | TRAE: ALP increased [3]: 0 n (%) | TRAE: ALT increased [3]: 0 n (%) | TRAE: AST increased [3]: 0 n (%) | TRAE: Anemia [3]: 0 n (%) | TRAE: GGT increased [3]: 0 n (%) | TRAE: LDH increased [3]: 0 n (%) | TRAE: Lymphocyte count decreased [3]: 0 n (%) | TRAE: Protein urine present [3]: 1 (25.0%) n (%) | TRAE: Proteinuria [3]: 2 (50.0%) n (%) | Treatment-emergent Proteinuria (grouped PTs), G1 [3]: 3 (75.0) n (%) | Treatment-emergent Proteinuria (grouped PTs), G2 [3]: 1 (25.0) n (%) | Treatment-emergent Proteinuria (grouped PTs), G3 [3]: 0 n (%) | Treatment-emergent Proteinuria (grouped PTs: proteinuria and urine protein present), any grade [3]: 4 (100.0) n (%) | At least one TEAE [4]: 7 (100%) n (%) | At least one TRAE [4]: 7 (100%) n (%) | TEAE: ALP increased [4]: 1 (14.3%) n (%) | TEAE: ALT increased [4]: 2 (28.6%) n (%) | TEAE: AST increased [4]: 3 (42.9%) n (%) | TEAE: Abdominal distention [4]: 2 (28.6%) n (%) | TEAE: Abdominal pain [4]: 2 (28.6%) n (%) | TEAE: Anemia [4]: 3 (42.9%) n (%) | TEAE: Asthenia [4]: 2 (28.6%) n (%) | TEAE: Bilirubin conjugated increased [4]: 2 (28.6%) n (%) | TEAE: Blood albumin decreased [4]: 0 n (%) | TEAE: Blood bilirubin increased [4]: 3 (42.9%) n (%) | TEAE: C-reactive protein increased [4]: 0 n (%) | TEAE: Constipation [4]: 4 (57.1%) n (%) | TEAE: Decreased appetite [4]: 1 (14.3%) n (%) | TEAE: GGT increased [4]: 1 (14.3%) n (%) | TEAE: Hypoalbuminemia [4]: 3 (42.9%) n (%) | TEAE: LDH increased [4]: 3 (42.9%) n (%) | TEAE: Lymphocyte count decreased [4]: 1 (14.3%) n (%) | TEAE: Platelet count decreased [4]: 1 (14.3%) n (%) | TEAE: Proteinuria [4]: 4 (57.1%) n (%) | TEAE: Sinus tachycardia [4]: 1 (14.3%) n (%)
